According to PubChem BioAssay AID330 (DTP/NCI, 2004):
Values joined by “and” are separate entries in the source; they are usually repeats but may differ in a detail not shown here. Identical values can stand only once. Toxic doses and inconclusive results are not listed. The calls were made as follows: active = survival T/C of 150% or more; inactive = T/C below 125% in these data.

Tested on: P388 leukemia ip, CD2F1 mice, survival T/C
Assay: NCI In Vivo Anticancer Drug Screen. Data for tumor model P388 Leukemia (intraperitoneal) in CD2F1 (CDF1) mice
Conditions: endpoint: median survival time, higher = longer survival
Outline: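 Mice carrying the transplanted tumor received test compound or vehicle. Survival was recorded in each group, and the value is the treated-group measurement divided by that of the vehicle-treated control group.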

[1] = dose: 25.0 mg/kg/injection, schedule: Q01DX009 (ip), vehicle: saline with Tween-80
[2] = dose: 50.0 mg/kg/injection, schedule: Q01DX009 (ip), vehicle: saline with Tween-80
[3] = dose: 100.0 mg/kg/injection, schedule: Q01DX009 (ip), vehicle: saline with Tween-80
[4] = dose: 50.0 mg/kg/injection, schedule: Q01DX005 (ip), vehicle: Klucel (hydroxypropylcellulose) (HPC)
[5] = dose: 100.0 mg/kg/injection, schedule: Q01DX005 (ip), vehicle: Klucel (hydroxypropylcellulose) (HPC)
[6] = dose: 200.0 mg/kg/injection, schedule: Q01DX005 (ip), vehicle: Klucel (hydroxypropylcellulose) (HPC)
[7] = dose: 50.0 mg/kg/injection, schedule: Q01DX009 (ip), vehicle: Klucel (hydroxypropylcellulose) (HPC)
[8] = dose: 100.0 mg/kg/injection, schedule: Q01DX009 (ip), vehicle: Klucel (hydroxypropylcellulose) (HPC)
[9] = dose: 200.0 mg/kg/injection, schedule: Q01DX009 (ip), vehicle: Klucel (hydroxypropylcellulose) (HPC)
[10] = dose: 200.0 mg/kg/injection, schedule: Q01DX009 (ip), vehicle: saline with Tween-80

Measured: T/C

CCOC(=O)NCCCl
inactive: dose: 5.0 mg/kg/injection, schedule: Q01DX009 (ip), vehicle: saline with Tween-80 104 % of control | dose: 10.0 mg/kg/injection, schedule: Q01DX009 (ip), vehicle: saline with Tween-80 107 % of control | dose: 20.0 mg/kg/injection, schedule: Q01DX009 (ip), vehicle: saline with Tween-80 101 % of control | dose: 50.0 mg/kg/injection, schedule: Q01DX008 (ip), vehicle: saline 95 % of control | dose: 100.0 mg/kg/injection, schedule: Q01DX008 (ip), vehicle: saline 98 % of control | dose: 200.0 mg/kg/injection, schedule: Q01DX008 (ip), vehicle: saline 107 % of control | dose: 400.0 mg/kg/injection, schedule: Q01DX008 (ip), vehicle: saline 101 % of control

CC(=O)OC1CCC2C(=CCC3C2(C)C(=O)CC2(C)C(C4(C)OC(C(C)C)=CC4=O)C(O)CC32C)C1(C)C (stereo not drawn)
inactive: dose: 9.63 mg/kg/injection, schedule: Q01DX005 (ip), vehicle: saline + Tween-80 + alcohol 111 % of control | dose: 19.25 mg/kg/injection, schedule: Q01DX005 (ip), vehicle: saline + Tween-80 + alcohol 111 % of control | dose: 38.5 mg/kg/injection, schedule: Q01DX005 (ip), vehicle: saline + Tween-80 + alcohol 106 % of control | dose: 77.0 mg/kg/injection, schedule: Q01DX005 (ip), vehicle: saline + Tween-80 + alcohol 97 % of control

COc1cc(CC2C(=O)OCC2Cc2cc(OC)c(O)c(C(CO)C(O)c3ccc(O)c(OC)c3)c2)ccc1O (stereo not drawn)
inactive: dose: 5.0 mg/kg/injection, schedule: Q01DX009 (ip), vehicle: saline 96 % of control | dose: 10.0 mg/kg/injection, schedule: Q01DX009 (ip), vehicle: saline 107 % of control | dose: 20.0 mg/kg/injection, schedule: Q01DX009 (ip), vehicle: saline 105 % of control | dose: 40.0 mg/kg/injection, schedule: Q01DX009 (ip), vehicle: saline 102 % of control

CCCN(CCC)CCCC#N
inactive: [1] 90 % of control | [2] 90 % of control | [3] 100 % of control

CC(C)=CC[P+](CC[P+](CC=C(C)C)(c1ccccc1)c1ccccc1)(c1ccccc1)c1ccccc1
inactive: dose: 6.25 mg/kg/injection, schedule: Q01DX005 (ip), vehicle: saline with Tween-80 98 % of control | dose: 12.5 mg/kg/injection, schedule: Q01DX005 (ip), vehicle: saline with Tween-80 98 % of control

Cc1ccc(-c2nnc3cc(C)n4nnnc4n23)cc1
inactive: dose: 6.25 mg/kg/injection, schedule: Q01DX005 (ip), vehicle: Klucel (hydroxypropylcellulose) (HPC) 101 % of control | dose: 12.5 mg/kg/injection, schedule: Q01DX005 (ip), vehicle: Klucel (hydroxypropylcellulose) (HPC) 108 % of control | dose: 25.0 mg/kg/injection, schedule: Q01DX005 (ip), vehicle: Klucel (hydroxypropylcellulose) (HPC) 108 % of control | [4] 101 % of control | [5] 105 % of control | [6] 107 % of control

O=C(NN=C(c1ccccc1)c1ccccc1)C(Cl)Cl
inactive: dose: 42.0 mg/kg/injection, schedule: Q01DX009 (ip), vehicle: saline with Tween-80 99 % of control | dose: 84.0 mg/kg/injection, schedule: Q01DX009 (ip), vehicle: saline with Tween-80 97 % of control | dose: 168.0 mg/kg/injection, schedule: Q01DX009 (ip), vehicle: saline with Tween-80 97 % of control

NCCN1C(=O)c2ccccc2C1(O)c1ccc(Cl)cc1 (stereo not drawn)
inactive: [7] 102 % of control | [8] 97 % of control | [9] 98 % of control

CCC(=N)C(c1ccccc1)(c1ccccc1)C(C)CN(C)C (stereo not drawn)
inactive: dose: 15.0 mg/kg/injection, schedule: Q01DX005 (ip), vehicle: saline 101 % of control | dose: 30.0 mg/kg/injection, schedule: Q01DX005 (ip), vehicle: saline 101 % of control | dose: 60.0 mg/kg/injection, schedule: Q01DX005 (ip), vehicle: saline 100 % of control

CCCCNC1C2CCC(C)(C1O)C2(C)C (stereo not drawn)
inactive: [4] 97 % of control

CC(O)C(NC(=O)C(Cc1ccc(O)cc1)NC(=O)C(CCCCN)N(C(=O)OCc1ccccc1)C(=O)OCc1ccccc1)C(=O)OCc1ccccc1 (stereo not drawn)
inactive: dose: 50.0 mg/kg/injection, schedule: Q01DX005 (ip), vehicle: saline with Tween-80 94 % of control | dose: 100.0 mg/kg/injection, schedule: Q01DX005 (ip), vehicle: saline with Tween-80 92 % of control | dose: 200.0 mg/kg/injection, schedule: Q01DX005 (ip), vehicle: saline with Tween-80 93 % of control

Oc1ccccc1C=NCc1ccccc1
inactive: [1] 107 % of control | [2] 119 % of control | [3] 114 % of control | [10] 114 % of control

CC(C)C12OC1C1OC13C1(C)CCC(O)CC1CC1OC13C2O (stereo not drawn)
inactive: dose: 0.03 mg/kg/injection, schedule: Q01DX009 (ip), vehicle: saline + alcohol 103 % of control and 101 % of control and 111 % of control | dose: 0.06 mg/kg/injection, schedule: Q01DX009 (ip), vehicle: saline + alcohol 102 % of control and 111 % of control | dose: 0.12 mg/kg/injection, schedule: Q01DX009 (ip), vehicle: saline + alcohol 115 % of control and 109 % of control and 107 % of control | dose: 0.25 mg/kg/injection, schedule: Q01DX009 (ip), vehicle: saline + alcohol 111 % of control and 106 % of control and 117 % of control | dose: 0.5 mg/kg/injection, schedule: Q01DX009 (ip), vehicle: saline + alcohol 115 % of control and 109 % of control | dose: 1.0 mg/kg/injection, schedule: Q01DX009 (ip), vehicle: saline + alcohol 109 % of control and 115 % of control | dose: 2.0 mg/kg/injection, schedule: Q01DX009 (ip), vehicle: saline + alcohol 111 % of control and 103 % of control and 106 % of control | dose: 4.0 mg/kg/injection, schedule: Q01DX009 (ip), vehicle: saline + alcohol 103 % of control and 100 % of control | dose: 8.0 mg/kg/injection, schedule: Q01DX009 (ip), vehicle: saline + alcohol 103 % of control and 100 % of control | dose: 16.0 mg/kg/injection, schedule: Q01DX009 (ip), vehicle: saline + alcohol 102 % of control and 103 % of control

COc1ccc(Br)c(C(=O)Sc2nnnn2-c2cccc(Cl)c2)c1
inactive: [2] 111 % of control | [3] 116 % of control | [10] 115 % of control

c1ccc(N2C3Sc4ncccc4C2Sc2ncccc23)cc1
inactive: [7] 104 % of control | [8] 94 % of control | [9] 96 % of control

Cc1ccc(S(=O)(=O)NCCCCCCNS(=O)(=O)c2ccc(C)cc2)cc1
inactive: [4] 86 % of control and 90 % of control | [5] 89 % of control | [6] 86 % of control and 91 % of control

Cc1cccc(Nc2c3ccccc3nc3ccccc23)c1
inactive: dose: 25.0 mg/kg/injection, schedule: Q01DX001 (ip), vehicle: saline with Tween-80 95 % of control | dose: 50.0 mg/kg/injection, schedule: Q01DX001 (ip), vehicle: saline with Tween-80 100 % of control | dose: 100.0 mg/kg/injection, schedule: Q01DX001 (ip), vehicle: saline with Tween-80 95 % of control

CN=C(c1ccc(NC(=O)c2ccc(C(=O)Nc3ccc(C(=NC)N(C)C)cc3)c(Cl)c2)cc1)N(C)C
inactive: dose: 0.75 mg/kg/injection, schedule: Q01DX005 (ip), vehicle: saline 95 % of control | dose: 1.5 mg/kg/injection, schedule: Q01DX005 (ip), vehicle: saline 96 % of control | dose: 3.0 mg/kg/injection, schedule: Q01DX005 (ip), vehicle: saline 92 % of control | dose: 3.12 mg/kg/injection, schedule: Q01DX005 (ip), vehicle: saline 100 % of control

O=C([O-])C(=O)[N-]CCC[N-]C(=O)C(=O)[N-]CCC[N-]C(=O)C(=O)[O-].[Cu+2].[Cu+2].[Na+]
inactive: dose: 3.75 mg/kg/injection, schedule: Q01DX005 (ip), vehicle: saline with Tween-80 103 % of control | dose: 7.5 mg/kg/injection, schedule: Q01DX005 (ip), vehicle: saline with Tween-80 104 % of control | dose: 15.0 mg/kg/injection, schedule: Q01DX005 (ip), vehicle: saline with Tween-80 101 % of control

Cc1ccc(C(C)C)c2c1CN(CCCN1COc3c(C(C)C)ccc(C)c3C1)CO2
inactive: dose: 60.0 mg/kg/injection, schedule: Q01DX005 (ip), vehicle: saline with Tween-80 91 % of control | dose: 120.0 mg/kg/injection, schedule: Q01DX005 (ip), vehicle: saline with Tween-80 86 % of control

O=C1CCSC(=S)N1c1ccc(Cl)c(C(F)(F)F)c1
inactive: dose: 25.0 mg/kg/injection, schedule: Q01DX009 (ip), vehicle: saline 101 % of control and 91 % of control | dose: 50.0 mg/kg/injection, schedule: Q01DX009 (ip), vehicle: saline 100 % of control and 106 % of control and 107 % of control | dose: 100.0 mg/kg/injection, schedule: Q01DX009 (ip), vehicle: saline 110 % of control and 118 % of control and 98 % of control | dose: 200.0 mg/kg/injection, schedule: Q01DX009 (ip), vehicle: saline 100 % of control and 119 % of control
